Measurements from patent US20180265515A1 (Genentech, Inc., priority 2015, published 2018).

Columns and labels:
[1] = target: T1, isolated recombinant JAK2 kinase domain (Homo sapiens, UniProt O60674); assay: JAK2 enzyme assay (Caliper LabChip, Ki); format: biochemical; conditions: 25 μM ATP
T1 construct: The activity of the isolated recombinant JAK1 and JAK2 kinase domain was measured
Description: (§1) JAK Enzyme Assays were Carried Out as Follows:
(§2) The activity of the isolated recombinant JAK1 and JAK2 kinase domain was measured by monitoring phosphorylation of a peptide derived from JAK3 (Val-Ala-Leu-Val-Asp-Gly-Tyr-Phe-Arg-Leu-Thr-Thr, fluorescently labeled on the N-terminus with 5-carboxyfluorescein) using the Caliper LabChip® technology (Caliper Life Sciences, Hopkinton, Mass.). […] Reactions were incubated at 22° C. in 384-well polypropylene microtiter plates for 30 minutes and then stopped by addition of 25 μL of an EDTA containing solution (100 mM HEPES buffer (pH 7.2), 0.015% Brij-35, 150 mM EDTA), resulting in a final EDTA concentration of 50 mM. After termination of the kinase reaction, the proportion of phosphorylated product was determined as a fraction of total peptide substrate using the Caliper LabChip® 3000 according to the manufacturer's specifications. Ki values were then determined using the Morrison tight binding model (Morrison, J. F., Biochim. Biophys. Acta. 185:269-296 (1969); William, J. W. and Morrison, J. F., Meth. Enzymol., 63:437-467 (1979)) modified for ATP-competitive inhibition [Ki=Ki,app/(1+[ATP]/Km,app)].

[2] = target: T2, isolated recombinant JAK1 kinase domain (Homo sapiens, UniProt P23458); assay: JAK1 enzyme assay (Caliper LabChip, Ki); format: biochemical; conditions: recombinant JAK1 kinase domain, 25 μM ATP
T2 construct: The activity of the isolated recombinant JAK1 and JAK2 kinase domain was measured
T2 sequence (P23458 875-1153 limits assumed): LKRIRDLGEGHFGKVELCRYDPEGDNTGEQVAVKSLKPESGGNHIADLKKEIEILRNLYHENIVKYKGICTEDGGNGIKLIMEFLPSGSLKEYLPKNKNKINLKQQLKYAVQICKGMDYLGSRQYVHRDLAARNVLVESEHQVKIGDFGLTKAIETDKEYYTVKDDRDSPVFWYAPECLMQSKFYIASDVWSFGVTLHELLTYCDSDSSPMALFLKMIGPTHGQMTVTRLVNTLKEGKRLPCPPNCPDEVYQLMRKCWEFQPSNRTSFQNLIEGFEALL
Description: as §1, §2

[3] = system: JAK1-dependent STAT6 phosphorylation downstream of IL-13 stimulation in BEAS-2B human bronchial epithelial cells; assay: JAK1 pathway assay in BEAS-2B cells (IL-13 stimulated STAT6 phosphorylation, MSD); format: cell-based; conditions: read-out: P-STAT6 BEAS2B + IL13 IC50
Description: JAK1 Pathway Assay in Cell Lines was Carried Out as Follows:
Inhibitor potency (EC50) was determined in cell-based assays designed to measure JAK1 dependent STAT phosphorylation. As noted above, inhibition of IL-4, IL-13, and IL-9 signaling by blocking the Jak/Stat signaling pathway can alleviate asthmatic symptoms in pre-clinical lung inflammation models (Mathew et al., 2001, J Exp Med 193(9): 1087-1096; Kudlacz et. al., 2008, Eur J. Pharmacol 582(1-3): 154-161).
In one assay approach, TF-1 human erythroleukemia cells obtained from the American Type Culture Collection (ATCC; Manassas, Va.) were used to measure JAK1-dependent STAT6 phosphorylation downstream of IL-13 stimulation. Prior to use in the assays, TF-1 cells were starved of GM-CSF overnight in OptiMEM medium (Life Technologies, Grand Island, N.Y.) supplemented with 0.5% charcoal/dextran stripped fetal bovine serum (FBS), 0.1 mM non-essential amino acids (NEAA), and 1 mM sodium pyruvate. The assays were run in 384-well plates in serum-free OptiMEM medium using 300,000 cells per well. In a second assay approach, BEAS-2B human bronchial epithelial cells obtained from ATCC were plated at 100,000 cells per well of a 96-well plate one day prior to the experiment. The BEAS-2B assay was run in complete growth medium (bronchial epithelial basal medium plus bulletkit; Lonza; Basel, Switzerland).
Test compounds were serially diluted 1:2 in DMSO and then diluted 1:50 in medium just before use. Diluted compounds were added to the cells, for a final DMSO concentration of 0.2%, and incubated for 30 min (for the TF-1 assay) or 1 hr (for the BEAS-2B assay) at 37° C. Then, cells were stimulated with human recombinant cytokine at their respective EC90 concentrations, as previously determined for each individual lot. Cells were stimulated with IL-13 (R&D Systems, Minneapolis, Minn.) for 15 min at 37° C. The TF-1 cell reactions were stopped by the direct addition of 10× lysis buffer (Cell Signaling Technologies, Danvers, Mass.), whereas the BEAS-2B cell incubations were halted by the removal of medium and addition of 1× lysis buffer. The resultant samples were frozen in the plates at −80° C. Compound mediated inhibition of STAT6 phosphorylation was measured in the cell lysates using MesoScale Discovery (MSD) technology (Gaithersburg, Md.). EC50 values were determined as the concentration of compound required for 50% inhibition of STAT phosphorylation relative to that measured for the DMSO control.

T1 sequence (O60674 849-1124 limits assumed): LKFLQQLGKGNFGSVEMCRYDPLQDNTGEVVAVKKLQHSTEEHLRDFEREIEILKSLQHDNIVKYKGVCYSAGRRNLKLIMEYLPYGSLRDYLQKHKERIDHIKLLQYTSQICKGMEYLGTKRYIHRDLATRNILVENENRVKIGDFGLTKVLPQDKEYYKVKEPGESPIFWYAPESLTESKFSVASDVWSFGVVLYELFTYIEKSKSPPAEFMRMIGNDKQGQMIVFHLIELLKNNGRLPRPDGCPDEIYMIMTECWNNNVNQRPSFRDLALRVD

| SMILES | Ki [1] | Ki [2] | IC50 [3] |
| --- | --- | --- | --- |
| O=C(Nc1c[nH]nc1-c1cc(SC2CC2)ccc1OC(F)F)c1cnn2cccnc12 [Example 160, N-[3-[5-(cyclopropylsulfanyl)-2-(difluoromethoxy)phenyl]-1H-pyrazol-4-yl]pyrazolo[1,5-a]pyrimidine-3-carboxamide] | 0.056 nM | 0.098 nM | 7.3 nM |
| CC(C)Sc1ccc(OC(F)F)c(-c2nn(CC(=O)N3CCC(N4CCN(C5COC5)CC4)CC3)cc2NC(=O)c2cnn3cccnc23)c1 [Example 143] | 2.5 nM | 0.92 nM | 89 nM |
| CN(C1CCN(C(=O)Cn2cc(NC(=O)c3cnn4cccnc34)c(-c3cc(SC4CC4)ccc3OC(F)F)n2)CC1)C1COC1 [Example 171, N-[3-[5-cyclopropylsulfanyl-2-(difluoromethoxy)phenyl]-1-[2-[4-[methyl(oxetan-3-yl)amino]-1-piperidyl]-2-oxo-ethyl]pyrazol-4-yl]pyraxolo[1,5-a]pyrimidine-3-carboxamide] | 0.78 nM | 0.43 nM | 22 nM |
| CC(C)Sc1ccc(OC(F)F)c(-c2nn(C[C@H]3CCCN3)cc2NC(=O)c2cnn3cccnc23)c1 [Example 113, N-[3-[2-(difluoromethoxy)-5-isoproplsulfanyl-phenyl]-1-[[(2R)-pyrrolidin-2-yl]methyl]pyrazol-4-yl]pyrazolo[1,5-a]pyrimidine-3-carboxamide] | 0.78 nM | 0.64 nM | 20 nM |
| CSc1ccc(OC(F)F)c(-c2nn(Cc3cn(C4CCN(C5CCOCC5)CC4)nn3)cc2NC(=O)c2cnn3cccnc23)c1 [Example 81, N-(3-(2-(difluoromethoxy)-5-(methylthio)phenyl)-1-((1-(1-(tetrahydro-2H-pyran-4-yl)piperidin-4-yl)-1H-1,2,3-triazol-4-yl)methyl)-1H-pyrazol-4-yl)pyrazolo[1,5-a]pyrimidine-3-carboxamide] | 0.23 nM | 0.35 nM | 8.1 nM |
| CSc1ccc(OC(F)F)c(-c2nn(CC(=O)N3CC4CCCN(C)C4C3)cc2NC(=O)c2cnn3cccnc23)c1 (stereo not drawn) [Example 39, N-[3-[2-(difluoromethoxy)-5-methylsulfanyl-phenyl]-1-[2-(1-methyl-3,4,4a,5,7,7a-hexahydro-2H-pyrrolo[3,4-b]pyridin-6-yl)-2-oxo-ethyl]pyrazol-4-yl]pyrazolo[1,5-a]pyrimidine-3-carboxamide] | 0.33 nM | 0.3 nM | 19 nM |
| CN(C)C(=O)CN1CCN(CC2CCN(C(=O)Cn3cc(NC(=O)c4cnn5cccnc45)c(-c4cc(SC5CC5)ccc4OC(F)F)n3)CC2)CC1 [Example 170, N-[3-[5-cyclopropylsulfanyl-2-(difluoromethoxy)phenyl]-1-[2-[4-[[4-[2-(dimethylamino)-2-oxo-ethyl]piperazin-1-yl]methyl]-1-piperidyl]-2-oxo-ethyl]pyrazol-4-yl]pyrazolo[1,5-a]pyrimidine-3-carboxamide] | 0.78 nM | 0.39 nM | 25 nM |
| CC(F)(F)CNC1CCN(C(=O)Cn2cc(NC(=O)c3cnn4cccnc34)c(-c3cc(SC4COC4)ccc3OC(F)F)n2)CC1 [Example 185, N-[3-[2-(difluoromethoxy)-5-(oxetan-3-ylsulfanyl)phenyl]-1-[2-[4-(2,2-difluoropropylamino)-1-piperidyl]-2-oxo-ethyl]pyrazol-4-yl]pyrazolo[1,5-a]pyrimidine-3-carboxamide] | 1.7 nM | 0.71 nM | 47 nM |
| CSc1ccc(OC(F)F)c(-c2nn(CC(=O)N3CCC(CN4CCN(C(=O)CN(C)C)CC4)CC3)cc2NC(=O)c2cnn3cccnc23)c1 [Example 74, N-[3-[2-(difluoromethoxy)-5-methylsulfanyl-phenyl]-1-[2-[4-[[4-[2-(dimethylamino)acetyl]piperazin-1-yl]methyl]-1-piperidyl]-2-oxo-ethyl]pyrazol-4-yl]pyrazolo[1,5-a]pyrimidine-3-carboxamide] | 0.58 nM | 0.3 nM | 50 nM |
| CSc1ccc(OC(F)F)c(-c2nn(Cc3cn(C4CCN(C5CCOC5)CC4)nn3)cc2NC(=O)c2cnn3cccnc23)c1 (stereo not drawn) [Example 96, N-[3-[2-(difluoromethoxy)-5-methylsulfanyl-phenyl]-1-[[1-(1-tetrahydrofuran-3-yl-4-piperidyl)triazol-4-yl]methyl]pyrazol-4-yl]pyrazolo[1,5-a]pyrimidine-3-carboxamide] | 0.2 nM | 0.3 nM | 14 nM |
| CCN1CCN(C(=O)Cn2cc(NC(=O)c3cnn4cccnc34)c(-c3cc(SC4COC4)ccc3OC(F)F)n2)CC1 [Example 181, N-[3-[2-(difluoromethoxy)-5-(oxetan-3-ylsulfanyl)phenyl]-1-[2-(4-ethylpiperazin-1-yl)-2-oxo-ethyl]pyrazol-4-yl]pyrazolo[1,5-a]pyrimidine-3-carboxamide] | 1.8 nM | 0.8 nM | 83 nM |
| COCCN1CCN(C(=O)Cn2cc(NC(=O)c3cnn4cccnc34)c(-c3cc(SC(C)C)ccc3OC(F)F)n2)CC1 [Example 116, N-[3-[2-(difluoromethoxy)-5-isopropylsulfanyl-phenyl]-1-[2-[4-(2-methoxyethyl)piperazin-1-yl]-2-oxo-ethyl]pyrazol-4-yl]pyrazolo[1,5-a]pyrimidine-3-carboxamide] | 1 nM | 0.51 nM | 26 nM |
| CSc1ccc(OC(F)F)c(-c2nn(CCN[C@@H]3CCCOC3)cc2NC(=O)c2cnn3cccnc23)c1 [Example 38, N-[3-[2-(difluoromethoxy)-5-methylsulfanyl-phenyl]-1-[2-[[(3R)-tetrahydropyran-3-yl]amino]ethyl]pyrazol-4-yl]pyrazolo[1,5-a]pyrimidine-3-carboxamide] | 0.19 nM | 0.23 nM | 20 nM |
| CC(C)Sc1ccc(OC(F)F)c(-c2nn(CC(=O)N3CCC(NCC(=O)N(C)C)CC3)cc2NC(=O)c2cnn3cccnc23)c1 [Example 104, N-[3-[2-(difluoromethoxy)-5-isopropylsulfanyl-phenyl]-1-[2-[4-[[2-(dimethylamino)-2-oxo-ethyl]amino]-1-piperidyl]-2-oxo-ethyl]pyrazol-4-yl]pyrazolo[1,5-a]pyrimidine-3-carboxamide] | 1.2 nM | 0.42 nM | 160 nM |
| O=C(Nc1cn(CCN[C@@H]2CCOC2)nc1-c1cc(SC2COC2)ccc1OC(F)F)c1cnn2cccnc12 [Example 177, N-[3-[2-(difluoromethoxy)-5-(oxetan-3-ylsulfanyl)phenyl]-1-[2-[[(3R)-tetrahydrofuran-3-yl]amino]ethyl]pyrazol-4-yl]pyrazolo[1,5-a]pyrimidine-3-carboxamide] | 0.48 nM | 0.81 nM | 18 nM |
| CSc1ccc(OC(F)F)c(-c2nn(CC(=O)N3CCC(N4CCN(C5COC5)CC4)CC3)cc2NC(=O)c2cnn3cccnc23)c1 [Example 69, N-[3-[2-(difluoromethoxy)-5-methylsulfanyl-phenyl]-1-[2-[4-[4-(oxetan-3-yl)piperazin-1-yl]-1-piperidyl]-2-oxo-ethyl]pyrazol-4-yl]pyrazolo[1,5-a]pyrimidine-3-carboxamide] | 0.71 nM | 0.35 nM | 50 nM |
